# Values quoted from earlier work, collected in US8338382B2, “Method of treating impaired mitochondrial function” (priority 1997, dated 2012).
# System: depressed patients
# Settings: literature (Sabelli 2002, 2000)
smiles,measurement,value
"NCCc1ccccc1 [PEA, 2-Phenylethylamine]",share of depressed patients in whom PEA is effective / controls depression,60%
same,"toxic effects, tolerance or abuse","no toxic effects, tolerance or abuse"
